Positions count from the first letter of the chain named. Like-named read-outs stand apart in the source and are kept apart here.
Legend:
[1] = biological target: T1, chimeric P2X4(P2X2) receptor c10^R301-Q308 (Homo sapiens, UniProt Q99571, A304N/D302K/DEL301-301/E307T/L303I/N306T/Q308T); test: ATP-induced calcium influx assay, chimeric receptor c10 in 1321N1 astrocytoma cells; type: cell-based
T1 construct: expressed in transfected cells; gene synthesis (Geneart), pLVX-IRES-mCherry (bicistronic, mCherry not fused)
T1 sequence (Q99571 with tags, fused parts or gaps DEL301-301/D302K/L303I/A304N/N306T/E307T/Q308T): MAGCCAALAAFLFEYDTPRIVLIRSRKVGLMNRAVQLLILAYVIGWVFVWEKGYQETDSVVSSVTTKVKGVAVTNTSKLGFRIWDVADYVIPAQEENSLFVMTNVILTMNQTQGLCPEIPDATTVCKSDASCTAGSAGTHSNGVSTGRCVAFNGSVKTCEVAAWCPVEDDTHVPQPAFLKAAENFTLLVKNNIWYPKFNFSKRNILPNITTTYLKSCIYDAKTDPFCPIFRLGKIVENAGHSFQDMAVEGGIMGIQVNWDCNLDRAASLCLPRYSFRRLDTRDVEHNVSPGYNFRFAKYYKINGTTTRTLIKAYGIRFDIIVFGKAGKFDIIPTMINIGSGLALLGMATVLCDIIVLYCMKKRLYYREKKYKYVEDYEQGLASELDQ

[2] = biological target: T2, chimeric P2X4(P2X2) receptor c6^N208-S216 (Homo sapiens, UniProt Q99571, I209R/N208D/S216R/T211D/T212G); test: cell-based
T2 sequence (Q99571 1-388 N208D/I209R/T211D/T212G/S216R): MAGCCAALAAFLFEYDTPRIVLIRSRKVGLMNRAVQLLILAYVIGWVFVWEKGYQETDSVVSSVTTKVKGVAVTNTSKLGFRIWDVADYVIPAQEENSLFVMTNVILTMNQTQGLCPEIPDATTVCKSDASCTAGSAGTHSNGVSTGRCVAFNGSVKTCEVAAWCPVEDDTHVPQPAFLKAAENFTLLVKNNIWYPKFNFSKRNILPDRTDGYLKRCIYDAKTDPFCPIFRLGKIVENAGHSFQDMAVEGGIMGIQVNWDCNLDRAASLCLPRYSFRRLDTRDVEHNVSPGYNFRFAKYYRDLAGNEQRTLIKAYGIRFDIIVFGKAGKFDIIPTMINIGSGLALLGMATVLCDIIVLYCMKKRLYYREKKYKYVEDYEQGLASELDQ

[3] = biological target: T1, chimeric P2X4(P2X2) receptor c10^R301-Q308; set-up: method as in ref 19 (supplement); details: read-out: ATP EC50, published value, ref 19 (supplement); cited from earlier work
[4] = biological target: chimeric P2X4(P2X2) receptor c7^I218-D224 (Homo sapiens, UniProt Q99571, A221E/D220H/I218T/K222A/T223S/Y219F); test: cell-based
chimeric P2X4(P2X2) receptor c7^I218-D224, sequence (Q99571 whole entry I218T/Y219F/D220H/A221E/K222A/T223S): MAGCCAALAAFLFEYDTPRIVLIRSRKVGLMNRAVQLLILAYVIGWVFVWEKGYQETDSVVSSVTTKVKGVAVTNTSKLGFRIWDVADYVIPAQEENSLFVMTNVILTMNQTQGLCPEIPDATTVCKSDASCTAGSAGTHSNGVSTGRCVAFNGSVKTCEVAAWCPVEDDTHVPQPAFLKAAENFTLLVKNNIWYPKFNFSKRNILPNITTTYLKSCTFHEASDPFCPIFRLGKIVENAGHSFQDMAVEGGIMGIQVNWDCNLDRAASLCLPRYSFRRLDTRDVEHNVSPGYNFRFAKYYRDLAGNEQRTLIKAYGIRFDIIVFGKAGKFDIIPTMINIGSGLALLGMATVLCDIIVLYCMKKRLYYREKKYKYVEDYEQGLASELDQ

[5] = biological target: P2X4-D302I receptor mutant (Homo sapiens, UniProt Q99571, D302I); test: cell-based
P2X4-D302I receptor mutant, sequence (Q99571 whole entry D302I): as the sequence (Q99571 whole entry I218T/Y219F/D220H/A221E/K222A/T223S) above, with T218I, F219Y, H220D, E221A, A222K, S223T, D302I counted along it

human wt P2X4 receptor = biological target: T3, human wt P2X4 receptor (Homo sapiens, UniProt Q99571); test: ATP-induced calcium influx assay, human wt P2X4 receptor in 1321N1 astrocytoma cells; type: cell-based; details: wt hP2X4; calcium influx
T3 construct: expressed in transfected cells
T3 sequence (Q99571 1-388): T2 sequence (Q99571 1-388 N208D/I209R/T211D/T212G/S216R) with D208N, R209I, D211T, G212T, R216S

[6] = biological target: chimeric P2X4(P2X2) receptor c2-c5^C116-T186 (Homo sapiens, UniProt Q99571, A122H/A137L/A177Q/A181M/D121V/DEL149-175/E183P/G138D/H140L/INS118S/INS148CVPYYQGPSKTCEVFGWCPVEDGASV/INS179G/K127L/K180T/P120R/P176S/S131D/S136E/S141G/S145R/T123N/T124A/T133V/T139M/V125T/V144L); test: cell-based
chimeric P2X4(P2X2) receptor c2-c5^C116-T186, sequence (Q99571 with tags, fused parts or gaps isoform Q99571-3 with the stated changes): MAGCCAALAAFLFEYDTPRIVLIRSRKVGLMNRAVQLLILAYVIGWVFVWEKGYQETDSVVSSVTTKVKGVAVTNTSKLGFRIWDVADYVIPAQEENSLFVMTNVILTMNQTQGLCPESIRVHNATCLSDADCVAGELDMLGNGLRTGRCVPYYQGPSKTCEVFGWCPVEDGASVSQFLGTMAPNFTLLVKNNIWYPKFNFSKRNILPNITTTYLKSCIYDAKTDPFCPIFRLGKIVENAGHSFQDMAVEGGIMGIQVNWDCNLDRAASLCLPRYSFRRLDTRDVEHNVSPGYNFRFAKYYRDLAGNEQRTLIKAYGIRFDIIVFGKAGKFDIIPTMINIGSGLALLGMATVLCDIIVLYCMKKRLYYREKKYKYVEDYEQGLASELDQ

## Nc1ncnc2c1ncn2[C@@H]1O[C@H](COP(=O)(O)OP(=O)(O)OP(=O)(O)O)[C@@H](O)[C@H]1O [ATP, Adenosine 5′-triphosphate]
[1]
  EC50: 912 nM
[1]; calcium influx
  EC50 of ATP at c10 higher than at wt P2X4: 2.4 fold
[2]
  EC50: 589 nM
[3]
  EC50: 862 nM
[4]
  EC50: 1200 nM
[5]; ATP EC50, P2X4-D302I
  EC50: 1600 nM
[5]; ATP pEC50 ± SEM, P2X4-D302I
  EC50: 1410 nM
Human wt P2X4 receptor
  EC50: 357 nM
[6]
  EC50: 2290 nM
